Data reported in PubChem BioAssay (NCI).
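How tested: cells in 96-well plates exposed to compound for 48 hours at five concentrations. TGI denotes the concentration required for complete inhibition of growth.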

Columns and labels:
Experiment in all cases: growth of human tumour cells (NCI), 48 h
ACHN renal = tested on: ACHN renal
BT-549 breast = tested on: BT-549 breast
NCI/ADR-RES ovarian = tested on: NCI/ADR-RES ovarian
M14 melanoma = tested on: M14 melanoma
SW-620 colon = tested on: SW-620 colon
MALME-3M melanoma = tested on: MALME-3M melanoma
A498 renal = tested on: A498 renal
SR leukemia = tested on: SR leukemia
TK-10 renal = tested on: TK-10 renal
CCRF-CEM leukemia = tested on: CCRF-CEM leukemia
SF-539 CNS = tested on: SF-539 CNS
OVCAR-4 ovarian = tested on: OVCAR-4 ovarian
UACC-62 melanoma = tested on: UACC-62 melanoma
HCC-2998 colon = tested on: HCC-2998 colon
RPMI-8226 leukemia = tested on: RPMI-8226 leukemia
HL-60(TB) leukemia = tested on: HL-60(TB) leukemia
T-47D breast = tested on: T-47D breast
LOX IMVI melanoma = tested on: LOX IMVI melanoma
EKVX NSCLC = tested on: EKVX NSCLC

Row | Compound | TGI (ACHN renal) | TGI (BT-549 breast) | TGI (NCI/ADR-RES ovarian) | TGI (M14 melanoma) | TGI (SW-620 colon) | TGI (MALME-3M melanoma) | TGI (A498 renal) | TGI (SR leukemia) | TGI (TK-10 renal) | TGI (CCRF-CEM leukemia) | TGI (SF-539 CNS) | TGI (OVCAR-4 ovarian) | TGI (UACC-62 melanoma) | TGI (HCC-2998 colon) | TGI (RPMI-8226 leukemia) | TGI (HL-60(TB) leukemia) | TGI (T-47D breast) | TGI (LOX IMVI melanoma) | TGI (EKVX NSCLC)
1 | O=C(CN1CCN(Cc2ccccc2)CC1)c1ccc2[nH]c(=O)oc2c1 | > 100 µM | > 100 µM | > 100 µM | > 100 µM | > 100 µM | 51.2 µM | > 100 µM | > 100 µM | > 100 µM | > 100 µM | > 100 µM | > 100 µM | > 100 µM | > 100 µM | > 100 µM | > 100 µM | > 100 µM | > 100 µM | > 100 µM
2 | CCCCCCCC1C(C)c2c([nH]c3ccccc23)C2C(=O)N(c3ccc(OC)cc3)C(=O)C21 (stereo not drawn) | 5.74 µM | 6.56 µM | 3.02 µM | > 9.51 µM | > 8.94 µM | > 10 µM | 5.47 µM | > 10 µM | 5.37 µM | > 6.6 µM | > 7.09 µM | 5.8 µM | > 10 µM | > 10 µM | > 10 µM | 3.73 µM | > 10 µM | – | > 10 µM
3 | Cc1c2c(c(C)n1-c1ccccc1)C(=O)N(CCCCN1CCN(c3ccccc3)CC1)C2=O | > 100 µM | 49.3 µM | 83.9 µM | 79.7 µM | > 100 µM | 20.9 µM | 69 µM | 27 µM | > 100 µM | 26.1 µM | 26.5 µM | 82.5 µM | 36.8 µM | 27.1 µM | 47.3 µM | 17.2 µM | 28.8 µM | 23.5 µM | 65.7 µM
4 | CCOC(=O)c1ccc(Nc2cnc3cc(C(F)(F)F)ccc3n2)cc1 | > 100 µM | > 100 µM | > 100 µM | – | > 100 µM | > 100 µM | > 100 µM | > 100 µM | > 100 µM | > 100 µM | > 100 µM | > 100 µM | > 100 µM | > 100 µM | > 100 µM | > 100 µM | > 100 µM | > 100 µM | > 100 µM
5 | O=c1cc(NCCCCCO)[nH]c(=O)[nH]1 | > 100 µM | > 100 µM | > 100 µM | > 100 µM | > 100 µM | > 100 µM | > 100 µM | > 100 µM | > 100 µM | > 100 µM | > 100 µM | > 100 µM | > 100 µM | > 100 µM | > 100 µM | > 100 µM | > 100 µM | > 100 µM | > 100 µM
6 | COc1cc(Cc2cc3c(c(C(=O)O)c2Br)OCO3)cc(OC)c1OC | > 100 µM | > 100 µM | > 100 µM | > 100 µM | > 100 µM | > 100 µM | > 100 µM | 89 µM | > 100 µM | > 100 µM | 91.1 µM | > 100 µM | > 100 µM | > 100 µM | – | 62.2 µM | > 100 µM | > 100 µM | > 100 µM
7 | O=P1(C(O)/C=C/c2ccccc2)N(Cc2ccccc2)[C@H](c2ccccc2)[C@@H](c2ccccc2)N1Cc1ccccc1 (stereo partly drawn) | > 95.4 µM | > 89.4 µM | > 100 µM | > 100 µM | > 100 µM | 99.7 µM | > 100 µM | 70.7 µM | > 100 µM | > 92.6 µM | > 100 µM | > 100 µM | > 100 µM | > 100 µM | 30.1 µM | 36.3 µM | > 100 µM | > 72.5 µM | > 96.1 µM
8 | O=c1c2cc(-c3ccccc3)sc2nc2n1N=C(c1ccccc1)CS2 | 32.5 µM | 46.7 µM | 57.5 µM | – | > 100 µM | > 100 µM | 71.9 µM | > 100 µM | > 100 µM | > 100 µM | 89.1 µM | 61.4 µM | 31.7 µM | > 100 µM | > 100 µM | > 100 µM | > 100 µM | > 100 µM | > 100 µM
9 | CCCCCC(C)(C)CCC(=O)OC1OC(COC2OC(COC3OC(CO)C(O)C(O)C3O)C(O)C(O)C2O)C(O)C(O)C1O (stereo not drawn) | > 100 µM | > 100 µM | > 100 µM | > 100 µM | > 100 µM | > 100 µM | > 100 µM | > 100 µM | > 100 µM | > 100 µM | > 100 µM | – | > 100 µM | > 100 µM | > 100 µM | > 100 µM | > 100 µM | > 100 µM | > 100 µM
10 | CN(C)C(Cc1cnc[nH]1)C(=O)N1CCCC1C(N)=O (stereo not drawn) | > 100 µM | > 100 µM | > 100 µM | > 100 µM | > 100 µM | > 100 µM | 98 µM | > 100 µM | > 100 µM | > 100 µM | – | > 100 µM | > 100 µM | > 100 µM | > 100 µM | > 100 µM | > 100 µM | > 100 µM | > 100 µM
11 | NCC(=O)NC1(c2cc3ccccc3s2)CCCCC1 | 56.9 µM | > 100 µM | > 100 µM | 34 µM | > 100 µM | 36.3 µM | > 100 µM | 19.2 µM | > 100 µM | 59.5 µM | > 100 µM | > 100 µM | 44.5 µM | 29 µM | 45.2 µM | 86.8 µM | > 100 µM | > 100 µM | > 100 µM
12 | CO/N=C(\C)c1ccc(Nc2c3ccccc3nc3occc23)cc1 | 35.2 µM | 21.3 µM | 4.75 µM | 9.59 µM | 18.9 µM | 0.895 µM | 9.94 µM | 21.9 µM | 18.4 µM | 35.9 µM | 2.28 µM | 7.58 µM | 16.3 µM | 1.94 µM | 12.1 µM | 2.23 µM | 19.2 µM | 18.2 µM | 39.9 µM
13 | COC(=O)CCc1cc(OC)c(O)c(C(Cc2ccc(OC)c(OC)c2)C(=O)OC)c1 (stereo not drawn) | > 100 µM | > 100 µM | > 100 µM | > 100 µM | > 100 µM | > 100 µM | > 100 µM | > 100 µM | > 100 µM | > 100 µM | > 100 µM | > 100 µM | > 100 µM | > 100 µM | > 100 µM | > 100 µM | > 100 µM | > 100 µM | > 100 µM
14 | CCC(C#N)(c1ccccc1)N(CCc1ccccc1)C(=O)c1ccccc1 (stereo not drawn) | > 100 µM | > 100 µM | > 100 µM | > 100 µM | > 100 µM | > 100 µM | 79.6 µM | > 100 µM | > 100 µM | > 100 µM | 34.8 µM | 44 µM | > 100 µM | > 100 µM | > 100 µM | > 100 µM | > 100 µM | > 100 µM | > 100 µM
15 | Cc1ccc(-c2nc(C)c(C(=O)Nc3ccc(Cl)cc3)s2)cc1 | 42 µM | 78.2 µM | > 100 µM | > 100 µM | > 100 µM | > 100 µM | 41.5 µM | > 100 µM | 38.9 µM | > 100 µM | > 100 µM | 49.2 µM | 45.8 µM | – | > 100 µM | > 100 µM | > 100 µM | > 100 µM | > 100 µM
16 | O=C1c2c(Cl)c(Cl)c(Cl)c(Cl)c2C(=O)N1CCN(c1c(Cl)ssc1=O)c1c(Cl)ssc1=O | 32.9 µM | > 100 µM | > 100 µM | 46.2 µM | 61.9 µM | 53.6 µM | > 100 µM | 44.7 µM | 33.5 µM | 72 µM | 35.4 µM | 40.2 µM | 44.4 µM | 58.8 µM | – | > 100 µM | 44.5 µM | 48.5 µM | 88.6 µM
17 | Brc1ccc2[nH]cc(-c3csc(-c4ccccn4)n3)c2c1 | 23.7 µM | > 100 µM | > 100 µM | > 100 µM | 98.6 µM | 65.2 µM | 12.4 µM | 43.6 µM | > 100 µM | > 100 µM | > 100 µM | > 92.8 µM | – | 31 µM | 63.7 µM | > 100 µM | > 100 µM | 33.2 µM | 48.2 µM
18 | CCC1=NC(N/N=C/c2ccco2)=N/C1=C\c1ccccc1O | > 100 µM | > 100 µM | > 100 µM | > 100 µM | > 100 µM | 98.9 µM | > 100 µM | > 100 µM | > 100 µM | 70.4 µM | – | 27.8 µM | 53.6 µM | 89.8 µM | > 100 µM | 60.6 µM | > 100 µM | > 100 µM | > 100 µM
19 | CCOC(=O)C1(C(N)=O)C(=O)c2ccncc2C1=O (stereo not drawn) | > 100 µM | > 100 µM | > 100 µM | > 100 µM | > 100 µM | > 100 µM | > 100 µM | > 100 µM | – | > 100 µM | > 100 µM | > 100 µM | > 100 µM | > 100 µM | > 100 µM | > 100 µM | > 100 µM | > 100 µM | > 100 µM
20 | CCOC(=O)CN1C(=O)c2c(c(C)n(-c3ccccc3)c2C)C1=O | > 100 µM | > 100 µM | > 100 µM | > 100 µM | > 100 µM | > 100 µM | > 100 µM | > 100 µM | > 100 µM | > 100 µM | > 100 µM | > 100 µM | > 100 µM | > 100 µM | > 100 µM | > 100 µM | > 100 µM | – | > 100 µM
